For one series, the target named is LRRK2 G2019S (Homo sapiens (Human), UniProt Q5S007, G2019S). Briefly: LRRK2 G2019S LanthaScreen TR-FRET kinase activity assay. Format: biochemical. Conditions: 250 pM kinase, 1.3 mM ATP, n≥2 tests. The procedure: (§1) LRRK2 kinase activity was measured using a LanthaScreen kinase activity assay available from Invitrogen (Life Technologies Corporation). […] The phosphorylated peptide is recognized by a terbium-labelled phospho-specific anti-LRRKtide antibody (pLRRKtide antibody), obtainable from Life Technologies Corporation) and, subsequently, the phosphorylated LRRKtide can be quantified by the extent of TR-FRET between the terbium donor and fluorescein acceptor.
Chain of LRRK2 G2019S (Q5S007 970-2527 G2019S): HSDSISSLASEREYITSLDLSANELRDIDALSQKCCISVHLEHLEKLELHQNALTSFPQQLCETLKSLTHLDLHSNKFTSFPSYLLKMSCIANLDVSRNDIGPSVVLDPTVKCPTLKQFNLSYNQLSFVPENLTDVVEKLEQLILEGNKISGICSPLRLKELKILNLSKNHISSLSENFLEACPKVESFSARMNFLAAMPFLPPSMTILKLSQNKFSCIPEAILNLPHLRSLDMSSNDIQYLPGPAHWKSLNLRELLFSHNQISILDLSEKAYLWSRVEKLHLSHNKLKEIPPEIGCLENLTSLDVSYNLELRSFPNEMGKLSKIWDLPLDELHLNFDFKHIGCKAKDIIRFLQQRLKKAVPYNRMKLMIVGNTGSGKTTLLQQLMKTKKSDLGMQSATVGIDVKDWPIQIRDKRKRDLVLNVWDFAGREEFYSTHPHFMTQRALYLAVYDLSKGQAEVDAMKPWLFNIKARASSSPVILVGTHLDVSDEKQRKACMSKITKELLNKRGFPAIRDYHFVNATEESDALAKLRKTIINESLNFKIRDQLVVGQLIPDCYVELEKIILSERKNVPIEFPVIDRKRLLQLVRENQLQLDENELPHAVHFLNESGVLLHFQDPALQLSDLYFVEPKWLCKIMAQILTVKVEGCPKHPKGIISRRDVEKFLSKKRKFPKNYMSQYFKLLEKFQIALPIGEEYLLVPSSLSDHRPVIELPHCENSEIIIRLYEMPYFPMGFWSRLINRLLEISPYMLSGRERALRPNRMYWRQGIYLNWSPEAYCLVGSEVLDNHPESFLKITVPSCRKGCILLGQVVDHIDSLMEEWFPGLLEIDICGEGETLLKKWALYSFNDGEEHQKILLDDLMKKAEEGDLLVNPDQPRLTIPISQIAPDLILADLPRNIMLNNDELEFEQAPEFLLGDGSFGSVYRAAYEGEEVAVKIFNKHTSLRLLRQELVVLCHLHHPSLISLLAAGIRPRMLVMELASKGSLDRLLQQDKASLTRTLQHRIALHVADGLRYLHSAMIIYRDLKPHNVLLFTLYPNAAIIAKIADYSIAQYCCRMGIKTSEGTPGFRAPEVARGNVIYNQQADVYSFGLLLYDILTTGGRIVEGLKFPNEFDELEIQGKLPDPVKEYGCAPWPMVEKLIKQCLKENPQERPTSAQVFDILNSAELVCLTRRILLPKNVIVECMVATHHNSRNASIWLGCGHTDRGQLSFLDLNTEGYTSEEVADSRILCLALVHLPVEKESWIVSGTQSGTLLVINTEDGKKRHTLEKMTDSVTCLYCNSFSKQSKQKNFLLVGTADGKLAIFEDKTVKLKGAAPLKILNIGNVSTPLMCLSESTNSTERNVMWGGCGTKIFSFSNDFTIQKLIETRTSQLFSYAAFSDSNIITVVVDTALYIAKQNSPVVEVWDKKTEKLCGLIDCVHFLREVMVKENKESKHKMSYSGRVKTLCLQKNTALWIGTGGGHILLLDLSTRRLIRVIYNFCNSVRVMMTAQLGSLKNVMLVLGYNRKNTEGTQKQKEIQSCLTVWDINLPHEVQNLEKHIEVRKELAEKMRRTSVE
(§2) As discussed above, this mutation increases the kinase activity relative to the wild type. The kinase reactions were performed in a 20 μL volume in 384-well plates. The kinase reaction buffer consisted of 50 mM Tris pH 8.5, 0.01% BRIJ-35, 10 mM MgCl2, 1 mM EGTA, and 2 mM DTT.
(§3) The mixture was further incubated for 30 minutes at RT. TR-FRET was measured by excitation of the terbium-donor with 340 nm light and subsequent (delay time […]) measurement of terbium and fluorescein emission at 495 nm and 520 nm, respectively, over a time window of […]. The measurement was repeated 30 times for fluorescein and 30 times for terbium emission with a […] between repeats. TR-FRET measurements were performed on a Biotek Synergy plate. The TR-FRET signal was calculated as the emission-ratio at 520 nm over 495 nm.
(§4) Test compound potency (IC50) was estimated by nonlinear regression using the sigmoidal dose-response (variable slope) using Xlfit 4 (IDBS, Guildford, Surrey, UK, model 205). Were the IC50 could not be determined the % inhibition at the highest tested concentration is given by equation 1. Equation (1): y=(A+((B−A)/(1+((C/x)^D)))) (1)
(§5) where y is the normalized TR-TRET ratio measurement for a given concentration of test compound, x is the concentration of test compound, A is the estimated efficacy (% inhibition) at infinite compound dilution, and B is the maximal efficacy (% inhibition). C is the IC50 value and D is the Hill slope coefficient. IC50 estimates were obtained from independent experiment and the logarithmic average was calculated.
In general terms: TR-FRET usually uses a lanthanide donor and a delayed reading to cut background.

Series [1] deals with T1, LRRK2 WT (Homo sapiens (Human), UniProt Q5S007). The series is described as follows: LRRK2 wild-type LanthaScreen TR-FRET kinase activity assay. It is filed as biochemical. Conditions: 1 nM kinase, 1.3 mM ATP, n≥2 tests. The procedure:
as §1, §2, §3, §4, §5

Series [2] deals with T1, LRRK2 WT. The series is described as follows: LRRK2 wild-type ADP-Glo kinase assay. Format: biochemical. Particulars: read-out: LRRK2 WT ADPGlo IC50. The procedure: LRRK2 kinase activity was measured using an ADP-Glo kinase assay from Promega Corporation. The assay is a homogeneous luminescence-based assay that measures ADP formed from a kinase reaction. The ADP is converted into ATP, which is used to generate light in a luciferase reaction. The luminescence generated correlates with kinase activity.
The LRRK2 kinase was obtained from Invitrogen (Life Technologies Corporation) and comprises residue 970 to 2527 of the full length human wild-type LRRK2 kinase. The kinase reactions were performed in a 10 μL volume in 384-well plates. The kinase reaction buffer consisted of 50 mM Tris pH 8.5, 0.01% BRIJ-35, 10 mM MgCl2, 1 mM EGTA, and 2 mM DTT.
The reaction mixture (10 μl total volume) was incubated for 3 hours at room temperature (RT, ca. 25° C.), before the reaction was terminated by addition of 10 μl ADP-Glo reagent. The mixture was further incubated for 60 minutes at RT before addition of 20 μl Kinase detection reagent from the ADP-Glo assay kit. Luminescence signal was measure on a BMG Labtech Pherastar FSX multimode microplate reader. The signal integration time was 0.5 s.
Test compound potency (Ki,app) was estimated by nonlinear regression using the tight-binding fit model in GeneData Screener (GeneData AG). In cases where the Ki,app could not be determined, the % inhibition at the highest tested concentration is reported. The tight-binding fit model is given by euquation (2). […] Ki,app is the apparent dissociation constant of the inhibitor. The IC50 can be calculated as given by equation (3). Equation (3): IC50=Ki,app+[E]/2 (3) IC50 estimates were obtained from independent experiment and the logarithmic average was calculated.
(In general: ADP-Glo first removes unused ATP, then detects ADP through luciferase.)

The nature of series [3]: Hepatic microsomal intrinsic clearance assay. Format: in vitro ADME. Conditions: pooled liver microsomes, pH 7.4; liver microsomes 0.5 mg/mL; 1 μM; NADPH; 1 hour at 37° C.; LLOQ 0.36 L/h/kg. The procedure:
Compounds (final concentration 1 μM, 1% organic) of the invention were incubated for 1 hour at 37° C., with shaking, in phosphate buffer (pH 7.4) containing commercially sourced pooled liver microsomes (final concentration 0.5 mg/mL). […] At designated time points (0, 5, 10, 20, 30 and 60 minutes) ice-cold acetonitrile containing internal standard (300 μL) was added to an incubation well to stop the reaction then mixed and centrifuged (3220 g for 20 minutes at 4° C.). Supernatant was diluted (1:4) with deionized water then analyzed by LC-MS/MS.
For orientation: Liver microsomes are a subcellular fraction often used to study metabolism.

A short description of series [4]: Rat brain disposition after oral gavage. Format: in vivo, male Sprague-Dawley rats. Conditions: male, Sprague-Dawley, oral 5 mg/kg, 1 h, mean ± stdev. The procedure: Brain disposition was evaluated in male Sprague-Dawley rats (n=3, standard body weight). Briefly, test compound was formulated as a simple suspension (0.5% HPMC in water) then administered by oral gavage (10 mg/kg, 10 mL/kg or 5 mg/kg, 10 mL/kg). At the designated time point (0.5 or 1 h post dose) rats were sacrificed and terminal blood and brain samples taken. Isolated plasma and brain homogenates were extracted by standard protein precipitation in acetonitrile, containing internal standard. Diluted extracts were analyzed by liquid-chromatography coupled with tandem mass spectrometry detection (LC-MS/MS) using a bioanalytical method. Concentrations of test compound in plasma and brain were quantified against matrix matched calibration standards. The total plasma and brain concentration time data are presented in Table 4 alongside the calculated brain Kp (total brain concentration:total plasma concentration ratio).
The total brain-to-plasma partition coefficient (brain Kp) is given by the ratio of the total brain concentration and total plasma concentration of the compound according to the equation below: […]
Based on the measured rat fuplasma and fubrain values and the brain Kp the unbound brain-to-plasma partition coefficient (brain Kp,uu for each compound was calculated. The Kp,uu parameter describes the extent of brain penetration for each compound, i.e. the parameter gives a direct quantitative description of how the blood-brain barrier (BBB) handles the compounds regarding passive transport and active influx/efflux. The brain Kp,uu is given by the equation below: […]

Series [5] can be described thus: Fraction unbound in rat plasma and brain homogenate by equilibrium dialysis. Format: in vitro ADME, male Sprague-Dawley rat. Conditions: 1 μM, equilibrium dialysis 5 h at 37° C. The procedure:
The fraction of unbound compound in male Sprague-Dawley rat plasma (fuplasma) and brain homogenate (fubrain) were determined by equilibrium dialysis using 96-well HTD-dialysis plates with dialysis membranes (molecular weight cut off 12-14 KDa). One side of the HTD-dialysis plate was loaded with matrix (plasma or brain homogenate) and the other side with buffer (100 mM sodium phosphate buffer, pH 7.4). Test compounds were dissolved in DMSO then spiked (5 μL of 0.2 mM) into blank (995 μL) plasma or diluted brain homogenate (1:4 ratio in phosphate buffer) giving a final nominal concentration 1 μM (≤0.5% DMSO). The matrices were loaded into respective chambers and equilibrated against phosphate buffer for 5 h at 37° C. (in a humidified air incubator with 5% CO2 with shaking). Samples from both chambers (buffer and plasma or brain homogenate) were aliquoted to fresh 96-well polypropylene plates then matrix matched using an equal volume of opposite blank matrix before extraction with cold solvent (3 volumes acetonitrile) containing an appropriate bioanalytical internal standard. After centrifugation (20 min, 3200 g, 4° C.) the supernatants were diluted with appropriate volumes of water and compound concentrations were quantified by LC/MS-MS against matrix matched calibration standards. The fuplasma and fubrain were calculated according to equation 4 below.
[formula] Where [F] is the compound concentration on the buffer (receiver) side of the membrane; [T] is the compound concentration on the plasma or brain (donor) side of the membrane; D is the matrix dilution factor which is determined as D=4 for brain matrix and D=1 for plasma matrix in these assays.

Setting [6] is: 0.5 nM kinase, 1.0 mM ATP, IC50=Ki,app+[E]/2, n≥2 tests.

Where two headings read alike, the source gives them in different places.

By IC50 is commonly meant the concentration that gives 50% inhibition. A word on the CLint scaled: it is a measure of how fast metabolising enzymes remove a compound, apart from limits set by blood flow. High values mean faster metabolism, low ones greater metabolic stability.

T1 sequence (Q5S007 970-2527): as the sequence (Q5S007 970-2527 G2019S) above, with S1050G counted along it

As to `Cc1c2c(nn1-c1cccnc1OC(F)(F)F)OCCCn1nc(Cl)c3cnc(nc31)N2` [Example 20, 8-Chloro-3-methyl-2-(2-(trifluoromethoxy)pyridin-3-yl)-2,4,12,13-tetrahydro-11H-5,7-(azenometheno)dipyrazolo[3,4-b:5′,1′-g][1]oxa[4,6,8]triazacycloundecine], the IC50 on LRRK2 G2019S is 1.1 nM; on LRRK2 WT [1], 3.4 nM; on LRRK2 WT [2] (setting [6]), 0.48 nM. In series [3], this molecule gave a CLint scaled at 1 μM of 18.3 mL/min/kg.

As to `CCc1c2c(nn1-c1cccnc1C)OCCCn1nc(Cl)c3cnc(nc31)N2` [Example 8, 8-Chloro-3-ethyl-2-(2-methylpyridin-3-yl)-2,4,12,13-tetrahydro-11H-5,7-(azenometheno)dipyrazolo[3,4-b:5′,1′-g][1]oxa[4,6,8]triazacycloundecine], the IC50 at LRRK2 G2019S was 12 nM; at LRRK2 WT [1], 35 nM; on LRRK2 WT [2] (setting [6]) it was 2.5 nM. The molecule further showed a Kp at 1 h in series [4] (brain, n=3) of 0.9 ± 0.1. Further, in series [4] (brain, n=3), the Kp uu at 1 h turned out to be 0.37 ± 0.03. Further, the concentration at 1 h in series [4] (brain, n=3, read-out: Total brain concentration) is 279 ± 10 ng/g; in series [4] (plasma, n=3, read-out: Total plasma concentration), 297 ± 29 ng/mL. Besides, the “fubrain (% free)” value in series [5] (rat brain homogenate) came to 7.5 % free. In series [5] (rat plasma), the “fuplasma (% free)” value is given as 19.3 % free. In addition, in series [3], the CLint scaled at 1 μM was 16.8 mL/min/kg.

As to `[2H]C([2H])([2H])c1c2c(nn1-c1cccnc1C)OCCCn1nc(Cl)c3cnc(nc31)N2` [Example 26, 8-Chloro-3-(methyl-d3)-2-(2-methylpyridin-3-yl)-2,4,12,13-tetrahydro-11H-5,7-(azenometheno)dipyrazolo[3,4-b:5′,1′-g][1]oxa[4,6,8]triazacycloundecine], the intrinsic clearance (CLint scaled) at 1 μM in series [3] is 11.7 mL/min/kg.

For `Cc1c2c(nn1-c1cccnc1C(F)(F)F)OCCCn1nc(Cl)c3cnc(nc31)N2` [Example 17, 8-Chloro-3-methyl-2-(2-(trifluoromethyl)pyridin-3-yl)-2,4,12,13-tetrahydro-11H-5,7-(azenometheno)dipyrazolo[3,4-b:5′,1′-g][1]oxa[4,6,8]triazacycloundecine], the IC50 worked out at 5.5 nM on LRRK2 G2019S, 20 nM at LRRK2 WT [1] and 3.1 nM at LRRK2 WT [2] (setting [6]). The molecule further showed a CLint scaled at 1 μM in series [3] of 15.3 mL/min/kg.

As for `[2H]C([2H])([2H])c1c2c(nn1-c1cccnc1OC)OCCCn1nc(Cl)c3cnc(nc31)N2` [Example 28, 8-Chloro-2-(2-methoxypyridin-3-yl)-3-(methyl-d3)-2,4,12,13-tetrahydro-11H-5,7-(azenometheno)dipyrazolo[3,4-b:5′,1′-g][1]oxa[4,6,8]triazacycloundecine], the IC50 on LRRK2 G2019S is 0.23 nM; on LRRK2 WT [1], 0.76 nM; at LRRK2 WT [2], 0.63 nM. For the same molecule, the CLint scaled at 1 μM in series [3] was 10.2 mL/min/kg.

`[2H]C([2H])([2H])c1c2c(nn1-c1cc(F)cnc1C)OCCCn1nc(Cl)c3cnc(nc31)N2` [Example 30, 8-Chloro-2-(5-fluoro-2-methylpyridin-3-yl)-3-(methyl-d3)-2,4,12,13-tetrahydro-11H-5,7-(azenometheno)dipyrazolo[3,4-b:5′,1′-g][1]oxa[4,6,8]triazacycloundecine]: the CLint scaled at 1 μM in series [3] was 14 mL/min/kg.

Take `[2H]C([2H])([2H])c1c2c(nn1-c1cc(C)cnc1C)OCCCn1nc(Cl)c3cnc(nc31)N2` [Example 27, 8-Chloro-2-(2,5-dimethylpyridin-3-yl)-3-(methyl-d3)-2,4,12,13-tetrahydro-11H-5,7-(azenometheno)dipyrazolo[3,4-b:5′,1′-g][1]oxa[4,6,8]triazacycloundecine]: the CLint scaled at 1 μM in series [3] was 8.17 mL/min/kg.

With `COc1nnccc1-n1nc2c(c1C)Nc1ncc3c(Cl)nn(c3n1)CCCO2` [Example 21, 8-Chloro-2-(3-methoxypyridazin-4-yl)-3-methyl-2,4,12,13-tetrahydro-11H-5,7-(azenometheno)dipyrazolo[3,4-b:5′,1′-g][1]oxa[4,6,8]triazacycloundecine], the IC50 on LRRK2 G2019S is 0.24 nM; on LRRK2 WT [1], 0.94 nM; at LRRK2 WT [2] (setting [6]) it was 0.45 nM. Moreover, the CLint scaled at 1 μM in series [3] was 25.7 mL/min/kg.

Take `CCc1ncccc1-n1nc2c(c1C)Nc1ncc3c(Cl)nn(c3n1)CCCO2` [Example 4, 8-Chloro-2-(2-ethylpyridin-3-yl)-3-methyl-2,4,12,13-tetrahydro-11H-5,7-(azenometheno)dipyrazolo[3,4-b:5′,1′-g][1]oxa[4,6,8]triazacycloundecine]: the IC50 at LRRK2 G2019S was 1.8 nM; on LRRK2 WT [1], 7 nM; at LRRK2 WT [2] (setting [6]), 0.82 nM. Besides, in series [3], the CLint scaled at 1 μM was 23.8 mL/min/kg.

These data come from US11958865B1, “Leucine-rich repeat kinase 2 (LRRK2) inhibitors” (H. Lundbeck A/S, priority 2022, dated 2024).
